# Source: BindingDB's records for doi:10.1021/acs.jmedchem.0c00766 (Istituto Italiano Di Tecnologia, 2020)
# Target: Serine-protein kinase ATM (Homo sapiens, UniProt Q13315)
# Assay: Inhibition of ATM (unknown origin) assessed as ATM-dependent phosphorylation using GST-p53 ser15 as substrate
# Sequence of Serine-protein kinase ATM (Q13315 whole entry): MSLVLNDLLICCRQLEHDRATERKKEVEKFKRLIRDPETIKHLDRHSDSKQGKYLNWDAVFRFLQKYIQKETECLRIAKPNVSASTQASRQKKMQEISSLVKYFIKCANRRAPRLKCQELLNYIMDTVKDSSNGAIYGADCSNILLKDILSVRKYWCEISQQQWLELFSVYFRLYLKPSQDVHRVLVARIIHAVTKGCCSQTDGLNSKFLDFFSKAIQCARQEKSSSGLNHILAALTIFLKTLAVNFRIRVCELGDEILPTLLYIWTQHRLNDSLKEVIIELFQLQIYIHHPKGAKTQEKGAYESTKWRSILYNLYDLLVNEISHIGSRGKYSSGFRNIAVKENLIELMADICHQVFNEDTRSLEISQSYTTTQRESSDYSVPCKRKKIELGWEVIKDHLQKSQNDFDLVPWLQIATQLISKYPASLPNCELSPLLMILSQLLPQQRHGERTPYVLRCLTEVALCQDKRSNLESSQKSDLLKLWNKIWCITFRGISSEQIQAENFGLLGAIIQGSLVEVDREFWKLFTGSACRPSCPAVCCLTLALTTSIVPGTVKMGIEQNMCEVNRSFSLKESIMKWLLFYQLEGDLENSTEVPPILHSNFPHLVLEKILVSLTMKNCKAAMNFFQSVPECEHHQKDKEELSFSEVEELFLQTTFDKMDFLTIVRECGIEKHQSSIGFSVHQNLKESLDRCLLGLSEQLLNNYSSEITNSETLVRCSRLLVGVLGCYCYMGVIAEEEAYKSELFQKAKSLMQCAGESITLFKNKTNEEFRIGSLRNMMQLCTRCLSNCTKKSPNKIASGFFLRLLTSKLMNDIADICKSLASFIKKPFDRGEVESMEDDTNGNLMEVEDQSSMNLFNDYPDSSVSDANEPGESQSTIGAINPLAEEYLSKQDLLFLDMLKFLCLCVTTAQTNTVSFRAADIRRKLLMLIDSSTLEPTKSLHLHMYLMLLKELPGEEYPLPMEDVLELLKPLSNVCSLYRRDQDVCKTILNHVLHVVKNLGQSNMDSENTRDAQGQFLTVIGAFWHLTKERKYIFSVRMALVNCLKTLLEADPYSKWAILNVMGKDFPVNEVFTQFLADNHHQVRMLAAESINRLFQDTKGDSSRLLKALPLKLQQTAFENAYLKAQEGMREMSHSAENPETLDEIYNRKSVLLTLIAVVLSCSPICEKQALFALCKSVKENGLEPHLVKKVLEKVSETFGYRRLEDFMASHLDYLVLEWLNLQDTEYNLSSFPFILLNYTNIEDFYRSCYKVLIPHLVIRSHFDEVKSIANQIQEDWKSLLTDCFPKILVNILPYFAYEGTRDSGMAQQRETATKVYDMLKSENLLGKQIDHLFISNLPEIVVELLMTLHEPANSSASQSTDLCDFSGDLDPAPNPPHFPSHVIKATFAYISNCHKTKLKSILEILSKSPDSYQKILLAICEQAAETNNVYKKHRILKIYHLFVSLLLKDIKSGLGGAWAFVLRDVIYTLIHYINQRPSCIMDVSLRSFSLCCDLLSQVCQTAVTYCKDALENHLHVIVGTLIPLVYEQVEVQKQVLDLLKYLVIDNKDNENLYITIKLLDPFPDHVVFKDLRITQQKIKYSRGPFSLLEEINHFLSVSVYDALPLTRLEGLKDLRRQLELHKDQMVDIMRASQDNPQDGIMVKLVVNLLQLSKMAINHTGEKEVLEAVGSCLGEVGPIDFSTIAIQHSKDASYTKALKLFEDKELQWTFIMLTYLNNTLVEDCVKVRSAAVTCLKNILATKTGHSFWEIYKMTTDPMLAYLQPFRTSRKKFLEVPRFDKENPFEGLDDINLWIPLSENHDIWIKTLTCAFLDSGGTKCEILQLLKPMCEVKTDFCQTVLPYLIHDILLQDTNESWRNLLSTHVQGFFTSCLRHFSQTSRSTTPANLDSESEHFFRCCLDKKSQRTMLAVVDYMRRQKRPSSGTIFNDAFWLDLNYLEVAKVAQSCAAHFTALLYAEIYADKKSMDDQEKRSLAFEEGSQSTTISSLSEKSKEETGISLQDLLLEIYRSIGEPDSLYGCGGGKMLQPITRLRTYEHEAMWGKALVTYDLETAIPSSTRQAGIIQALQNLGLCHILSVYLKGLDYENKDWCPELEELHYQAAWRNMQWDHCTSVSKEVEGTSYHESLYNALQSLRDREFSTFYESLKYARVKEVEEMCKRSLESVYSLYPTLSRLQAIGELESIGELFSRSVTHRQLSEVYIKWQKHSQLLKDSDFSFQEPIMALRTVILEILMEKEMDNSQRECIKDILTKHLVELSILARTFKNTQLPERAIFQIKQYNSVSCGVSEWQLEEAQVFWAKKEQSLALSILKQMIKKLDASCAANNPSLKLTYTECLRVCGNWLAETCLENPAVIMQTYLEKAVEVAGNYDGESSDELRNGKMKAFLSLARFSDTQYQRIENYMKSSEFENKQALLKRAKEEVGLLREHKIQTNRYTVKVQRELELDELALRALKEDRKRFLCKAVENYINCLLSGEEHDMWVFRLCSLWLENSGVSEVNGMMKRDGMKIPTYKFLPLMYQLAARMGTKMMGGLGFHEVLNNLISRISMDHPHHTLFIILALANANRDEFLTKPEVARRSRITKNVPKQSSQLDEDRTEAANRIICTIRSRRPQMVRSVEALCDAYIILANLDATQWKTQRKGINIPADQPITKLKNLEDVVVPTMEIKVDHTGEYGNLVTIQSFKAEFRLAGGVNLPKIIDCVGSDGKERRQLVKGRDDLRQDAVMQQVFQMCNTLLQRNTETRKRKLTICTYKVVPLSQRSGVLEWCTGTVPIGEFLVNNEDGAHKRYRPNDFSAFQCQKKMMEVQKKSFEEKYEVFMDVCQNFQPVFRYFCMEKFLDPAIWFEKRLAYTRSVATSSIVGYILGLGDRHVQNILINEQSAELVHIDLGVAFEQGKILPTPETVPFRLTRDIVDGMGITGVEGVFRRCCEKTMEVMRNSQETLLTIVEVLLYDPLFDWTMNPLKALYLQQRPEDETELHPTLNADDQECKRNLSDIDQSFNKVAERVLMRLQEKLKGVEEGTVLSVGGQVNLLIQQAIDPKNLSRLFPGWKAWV
structure (smiles),measurement,value
CC(C)n1c(=O)n(C)c2cnc3cc(F)c(-c4ccc(OCCCN5CCCCC5)nc4)cc3c21 [Azd-1390],IC50,90 pM
